Columns and labels:
[1] = test system: endothelium-denuded rat small mesenteric artery; assay: Vasorelaxation of endothelium-denuded rat small mesenteric artery; conditions: logistic fit; for EC50: Rattus norvegicus, precontracted with methoxamine
Procedure: FIG. 17 is a graph showing vasorelaxation of endothelium-denuded rat small mesenteric artery preparations by MitoSNAP and SNAP. To measure vessel relaxation in endothelium-denuded rat mesenteric artery male Wistar rats (250-350 g) were anesthetized with sodium pentobarbitone (60 mg/kg ip Sagatal, Rhone Merieux, Harlow, Essex UK). The mesentery was removed and placed in ice-cold, gassed (95% O2/5% CO2) Krebs-Henseleit buffer. […] Vessels were maintained at 37° C. in Krebs-Henseleit solution containing indomethacin (10 μM) and bubbled with 95% O2/5% CO2 and were allowed to equilibrate under zero tension for 60 min. After equilibration vessels were normalized to a tension equivalent that generated at 90% of the diameter of the vessel at 100 mm Hg^3. Vessels were precontracted with methoxamine and then sequential cumulative additions of test compounds were made to relax the vessels shielded from direct light. Relaxation of muscle tone are expressed as a percentage of relaxation of the initial tone. Data are means of four determination of MitoNAP and MitoSNAP and of 6 for SNAP. Data from the dose-response curves were fitted to a logistic curve, with the following parameters: […]

Jurkat cells = assay: Respiration of Jurkat cells (O2 electrode); assay type: cell-based; conditions: 5 μM; for effect on respiration by Jurkat cells: 37° C.
Procedure: FIG. 10 is a series of traces and graphs showing the effect of MitoSNAP on respiration in cells. (a-d) Jurkat cells (55×10^6 cells) were incubated in PBS supplemented with 25 mM Hepes pH 7.2 (NaOH), 1 mM sodium pyruvate, 10 μM neocuproine and 100 μM DTPA in the stirred 2.5 ml chamber of an oxygen electrode at 37° C. with 5 μM MitoSNAP (a), MitoNAP (b), SNAP (c) or MitoSNAP and FCCP (500 nM) (d). Where indicated 5 μM OxyHb was added. Traces show typical experiments that were repeated at least three times. Sections of the 02 electrode trace where OxyHb was added for (a) and (b) have been expanded 4-fold in the vertical dimension to facilitate inspection. In all traces the dashed line indicates anaerobiosis. (e) Effect of MitoSNAP on O2 bioavailability in hypoxia. HeLa cells were incubated at 1% O2 concentration with 5% CO2 and the balance N2 for […] before the indicated treatments. Cellular pO2 values, measured by fluorescence quenching oximetry and expressed as mean±sd, are shown. (**p<0.001 compared to hypoxia alone and to MitoNAP treatments by ANOVA).
Cell culture. Cells were grown in medium supplemented with 10% fetal calf serum (FCS), penicillin (100 U.ml^−1) and streptomycin (100 μg.ml^−1) at 37° C. in a humidified atmosphere of 95% air/5% CO2. Jurkat cells were cultured in Roswell park memorial institute (RPMI) 1640 medium supplemented with 2 mM Glutamax and 25 mM Hepes. HeLa cells were grown in minimum essential eagle medium (MEM) containing 2 mM glutamine and non-essential amino acids and were grown to 100% confluence prior to use. […]
To evaluate the selective uptake of MitoSNAP by mitochondria within cells, the effect of MitoSNAP on respiration by Jurkat cells, a T lymphocyte cell line that grows in suspension, was measured using an O2 electrode (FIG. 10). […] Then the effects of a further 30 min incubation with MitoSNAP, MitoNAP or the mitochondrial inhibitor myxathiazol on the steady-state extracellular pO2 was assessed by fluorescence quenching oximetry (FIG. 10e).

SMILES | EC50 [1] [nM] | max. relaxation of induced tone [1] [%] | slope function (Hill slope) [1] | effect on respiration by Jurkat cells (Jurkat cells) | time for which a low O2 concentration was maintained (Jurkat cells; low O2 concentrations)
CC(=O)NC(C(=O)O)C(C)(C)SN=O (racemic) [SNAP, S-nitroso-N-acetyl-DL-penicillamine, reference compound] | 5.2 ± 0.5 | 92±2 | 1.0±0.1 | had no effect on respiration | 
CC(=O)NC(C(=O)NCCCCC[P+](c1ccccc1)(c1ccccc1)c1ccccc1)C(C)(C)SN=O.CS(=O)(=O)[O-] (stereo not drawn) [MitoSNAP, [5-(2-acetylamino-3-methyl-3-nitrosothio-butyrylamino)-penty1]-triphenylphosphonium methanesulfonate] | 16.5 ± 1.1 | 96±1 | 1.3±0.1 | respiration rate decreased and approached zero | at least 30 min

Source: patent US9045505B2, “Nitric oxide donors” (University of Otago, priority 2006, dated 2015)
